Patent US20040115162A1, “Dermatological preparations” (KAO CORPORATION, priority 1999, published 2004)

Columns and labels:
chapping in cheeks = assay: Test 1: skin chapping score by naked-eye observation after 2-week application on cheeks; type: in vivo, human; details: 33% diamide derivative and 67% vaseline, 2 weeks, mean score, 0 no chapping to 4 serious chapping
Experimental: (§1) Dermatologic preparations (invention products) composed of 33% of each of the diamide derivatives prepared in Preparation Examples 1 to 18 and 67% of vaseline were prepared. Their effects on skin conductance and chapping were evaluated in the below-described manner. For comparison, a dermatologic preparation (Comparative Product 1) composed of vaseline alone was evaluated in the same manner.
(§2) Ten female subjects aged 20 to 50 years, who suffered chapping in cheeks in winter, were employed. Different dermatologic preparations were applied on the right and left cheeks of the subjects for 2 weeks, respectively. On the next day after completion of the application for 2 weeks, the following items were examined.
Each score is expressed in the mean value.
0: No chapping is observed.
1: Slight chapping is observed.
3: Somewhat serious chapping is observed.
4: Serious chapping is observed.

[1] = Miscibility and mixing stability in cosmetic formulations; type: physicochemical
[2] = tested on: dorsal skin of rats with essential fatty acid deficiency; assay: Test 2: transepidermal water loss in rats with essential fatty acid deficiency; type: in vivo, Wistar male rats; design: unit not given here; details: 10% diamide derivative and 90% squalane; applied to shaven dorsal part once a day for 2 weeks; evaporimeter; mean of 5 rats
Experimental: (§3) Dermatologic preparations (invention products) of the present invention composed of 10% of each of the diamide derivatives prepared in Preparation Examples 1 to 18 and 90% of squalane were prepared and their transepidermal water loss and percutaneous absorption were evaluated by the below-described test method. For comparison, a dermatologic preparation (Comparative Product 2) composed of squalane alone was also evaluated by the test.
(§4) Wistar male rats were fed with a feed free from essential fatty acids and the resulting rats with essential fatty acid deficiency were employed in this test. The dorsal part of the rat showing essential fatty acid deficiency was carefully shaven and each dermatologic preparation to be evaluated was applied thereto once a day for 2 weeks. A group consisting of 5 rats was provided for the test of each dermatologic preparation. After 2 weeks, the following items were examined.
The dorsal part of the test rat was washed with warm water and the animal was the allowed to stand in a room (at 23° C. under a humidity of 45%) for 1 hour. The transepidermal water loss was then measured with an evaporimeter. Each measured value is expressed in mean value.

horny layer = assay: Test 1: skin conductance (water content of the horny layer) after 2-week application on cheeks; type: in vivo, human; design: unit not given here; details: preparation of 33% diamide derivative and 67% vaseline; applied on cheeks 2 weeks; ten female subjects with chapping; skin conductance meter, 20° C., humidity 45%
Experimental: as §1, §2
The face of each subject was washed with warm water of 37° C. After they were allowed to stand in a room at 20° C. under a humidity of 45% for 20 minutes, the water content of the horny layer was measured using a skin conductance meter (product of IBS Co., Ltd.).

[3] = tested on: dorsal skin of rats with essential fatty acid deficiency; assay: Test 2: percutaneous absorption of 14C-salicylic acid through excised dorsal skin of treated rats; type: in vivo, Wistar male rats; details: 10% diamide derivative and 90% squalane; once a day for 2 weeks; radioactivity of 14C-salicylic acid penetrated in 2 hours through excised skin; mean
Experimental: as §3, §4
After the dorsal skin of the rat was washed with warm water of 37° C., it was cut and fixed in a percutaneous absorption chamber with the epidermal side thereof directed upward. A lower receiver of the chamber was filled with a phosphate buffer solution while a container on the epidermal side thereof was charged with 1 ml of a phosphate buffer solution containing 37 KBq of ^14C-salicylic acid. Two hours after they were allowed to stand, 1 mL of the phosphate buffer solution was taken out of the lower receiver and the radioactivity of the ^14C-salicylic acid which had penetrated into it was measured. Each value is expressed in mean value.

[4] = in hair liquid composition of Table 10, 1%

Compound | Skin chapping score (chapping in cheeks) | miscibility and mixing stability ([1]; in shampoo of Table 9, 2%) | miscibility and mixing stability ([1]; in skin lotion of Table 7, 1%) | Transepidermal water loss [2] | Skin conductance (horny layer) | Percutaneous absorption [3] | miscibility and mixing stability ([1]; in O/W cream of Table 8, 3.5%) | miscibility and mixing stability [1, 4]
CC(CCCCCCC(=O)NCCOCCO)CCCCC(C)CCCCCCC(=O)NCCOCCO (stereo not drawn) [Compound (A)] | 0.6 | excellent | excellent | 12 | 28 | 572 |  | 
C/C(=C\CC/C=C(\C)CCCCCCC(=O)NCCOCCO)CCCCCCC(=O)NCCOCCO [Compound (B)] | 0.9 |  |  | 12 | 25 | 558 |  | 
O=C(CCCCCCCCCCCCCCCCCCC(=O)NCCOCCO)NCCOCCO [Compound (C)] | 1.0 |  |  | 21 | 21 | 1685 |  | 
O=C(CCCCCCCCC(=O)NCCOCCO)NCCOCCO [Compound (D)] | 0.5 |  |  | 15 | 30 | 997 | excellent | excellent
O=C(CCC(=O)NCCOCCO)NCCOCCO [Compound (E)] | 1.0 |  |  | 25 | 18 | 1772 |  | 
COCCCNC(=O)CCCCCCC(C)CCCCC(C)CCCCCCC(=O)NCCCOC (stereo not drawn) [Compound (F)] | 1.2 | excellent | excellent | 20 | 20 | 1487 | excellent | excellent
CCCCCCCCCCCCOCCCNC(=O)CCCCCCC(C)CCCCC(C)CCCCCCC(=O)NCCCOCCCCCCCCCCCC (stereo not drawn) [Compound (G)] | 1.1 |  |  | 16 | 17 | 1096 |  | 
COCCOCCNC(=O)CCCCCCC(C)CCCCC(C)CCCCCCC(=O)NCCOCCOC (stereo not drawn) [Compound (H)] | 1.3 |  |  | 23 | 19 | 2036 |  | 
O=C(CCCCCCCCCCCCCC(=O)NCCOCCO)NCCOCCO [Compound (I)] |  |  |  | 18 |  | 1197 |  | 
O=C(CCCCCCCCCCCC(=O)NCCOCCO)NCCOCCO [Compound (J)] | 0.8 |  |  | 21 | 23 | 1490 |  | 
O=C(CCCCCCCCCCC(=O)NCCOCCO)NCCOCCO [Compound (K)] |  |  |  | 22 |  | 1694 |  | 
COCCCNC(=O)CCCCCCCCCCCCCCCCCCC(=O)NCCCOC [Compound (L)] | 1.3 |  |  | 15 | 19 | 705 |  | 
COCCCNC(=O)CCCCCCCCCCC(=O)NCCCOC [Compound (M)] |  |  |  | 25 |  | 2038 |  | 
COCCCNC(=O)CCCCCCCCC(=O)NCCCOC [Compound (N)] | 1.5 |  |  | 23 | 18 | 1560 |  | 
CCCCCCCCCCCCOCCCNC(=O)CCCCCCCCC(=O)NCCCOCCCCCCCCCCCC [Compound (O)] |  |  |  | 27 |  | 2476 |  | 
